Entries after “also recorded” stand apart in the source; their conditions may differ.
Tested on: DRG axons
Assay: Axon degeneration assay (axotomy of mouse DRG drop cultures)
Format: cell-based
Protocol: Mouse dorsal root ganglion neurons (DRGs) were dissected out of E12.5 CD1 mice (50 ganglia per embryo) and incubated with 0.5% Trypsin solution containing 0.02% EDTA (Gibco) at 37° C. for 15 min. The cells were then triturated by gentle pipetting and washed 3 times with DRG growth medium (Neurobasal medium (Gibco) containing 2% B27 (Invitrogen), 100 ng/ml 2.5S NGF (Harland Bioproducts), […] 5-fluoro-2′deoxyuridine (Sigma), penicillin, and streptomycin). Cells were suspended in the DRG growth medium. DRG drop cultures were created by spotting 5000 cells/well into the center of each well of a 96-well tissue culture plate coated with poly-D-Lysine (0.1 mg/ml; Sigma) and laminin ([…]; Invitrogen). Cells were allowed to adhere to the plates in a humidified tissue culture incubator (5% CO2) for 15 min and then DRG growth medium was gently added ([…]).
To study the axonal protective effects of combining NR supplementation with a SARM1 inhibitor, 6 day-old mouse DRG drop cultures were preincubated with 100 μM NR for 24 hours before axotomy. 2 hours prior to axotomy, DRG cultures were treated with SARM1 inhibitors, in the continued presence of 100 μM NR. Potent SARM1 inhibitors were selected from two classes: isoquinoline and isothiazole SARM1 inhibitors. Isoquinoline SARM1 inhibitors tested included I-26 and I-86, while isothiazole SARM1 inhibitors tested included II-6 and II-32. The SARM1 inhibitors were tested using concentrations ranging from 0.1 to 33 μM.
A manual axotomy was performed at time 0 by transecting the axons of the DRG neurons with a blade. After axotomy, DRG cultures remained exposed to the to SARM1 inhibitor alone, 100 μM NR alone, or the combination of SARM1 inhibitor and NR. At either 16 or 24 hours, DRG cultures were fixed in a buffered solution containing 1% PFA and sucrose and stored at 4° C. prior to imaging. Bright-field images of DRG axons and cell bodies were collected using the 20× water immersion lens of a Phenix automated confocal microscope (PerkinElmer) and quantitation of axonal damage was performed using in-house developed scripts (Acapella, PerkinElmer). The effect of NR alone in protecting distal axons from fragmentation was determined at a concentration of 100 μM. The effect of combining 100 μM NR with varying concentrations of a SARM1 inhibitor was compared to the individual protective effects of either 100 μM of NR alone or an equivalent concentration of a SARM1 inhibitor alone.

[1] = 1.1 μM SARM1 inhibitor alone, 24 h post-axotomy
[2] = 3.3 μM SARM1 inhibitor alone, 16 h post-axotomy
[3] = 3.3 μM SARM1 inhibitor alone, 24 h post-axotomy

COc1cc(Br)c2ccncc2c1 [I-86]
axonal protection (degeneration index of DRG axons) (1.1 μM SARM1 inhibitor alone, 16 h post-axotomy): NR alone provided greater protection than 1.1 μM compound I-86 alone
axonal protection (degeneration index of DRG axons) [1]: less protection than NR alone
axonal protection (degeneration index of DRG axons) [2]: greater protection than NR alone

COCCn1sc(Nc2ccccc2C(F)(F)F)c(C#N)c1=O [II-32]
axonal protection (degeneration index of DRG axons) (0.11 μM SARM1 inhibitor alone, 16 h post-axotomy): NR alone provided greater protection than 0.11 μM and 0.33 μM of compound II-32 alone
axonal protection (degeneration index of DRG axons) (0.11 μM SARM1 inhibitor alone, 24 h post-axotomy): NR alone provided greater protection than 0.11 μM and 0.33 μM compound II-32 alone
axonal protection (degeneration index of DRG axons) (0.33 μM SARM1 inhibitor alone, 16 h post-axotomy): NR alone provided greater protection than 0.11 μM and 0.33 μM of compound II-32 alone
axonal protection (degeneration index of DRG axons) (0.33 μM SARM1 inhibitor alone, 24 h post-axotomy): NR alone provided greater protection than 0.11 μM and 0.33 μM compound II-32 alone
axonal protection (degeneration index of DRG axons) (1 μM SARM1 inhibitor alone, 16 h post-axotomy): greater protection than NR alone
axonal protection (degeneration index of DRG axons) (1 μM SARM1 inhibitor alone, 24 h post-axotomy): greater protection than NR alone

Ic1cccc2cnccc12 [I-26]
axonal protection (degeneration index of DRG axons) [1]: no statistically significant benefit
axonal protection (degeneration index of DRG axons) [3]: more protection than with NR alone
axonal protection (degeneration index of DRG axons) (SARM1 inhibitor alone, concentration not stated in the sentence (1.1 or 3.3 μM tested), 16 h post-axotomy): modest amount of axonal protection

N#Cc1c(O)nsc1Nc1ccccc1C(F)(F)F [II-6]
axonal protection (degeneration index of DRG axons) [2]: stronger protection that NR alone; also recorded: stronger protection than NR alone
axonal protection (degeneration index of DRG axons) [3]: stronger protection than NR alone

NC(=O)c1ccc[n+]([C@@H]2O[C@H](CO)[C@@H](O)[C@H]2O)c1 [NR, 1-(β-D-ribofuranosyl)nicotinamide, reference compound]
axonal protection (degeneration index of DRG axons) (100 μM NR alone, 16 h post-axotomy): modest amount of axonal protection
axonal protection (degeneration index of DRG axons) (100 μM NR alone, 24 h post-axotomy): modest level of protection
